Results from publication doi:10.1101/2025.03.30.646141v1 (biorxiv, 2025).

Legend:
APH(3’)-IIb WT [1] = molecular target: T1, APH(3’)-IIb WT (Pseudomonas aeruginosa, UniProt Q9HWR2); test: ITC; assay type: binding
T1 sequence (Q9HWR2 1-268): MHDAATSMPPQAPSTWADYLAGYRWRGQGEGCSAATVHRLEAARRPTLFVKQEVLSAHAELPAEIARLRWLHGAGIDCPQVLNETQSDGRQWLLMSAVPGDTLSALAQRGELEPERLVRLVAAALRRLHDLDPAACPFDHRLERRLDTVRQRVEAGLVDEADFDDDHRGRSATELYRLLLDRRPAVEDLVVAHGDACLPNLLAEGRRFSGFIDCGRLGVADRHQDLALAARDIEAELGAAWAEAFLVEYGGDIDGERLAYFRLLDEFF

APH(3’)-IIb WT [2] = molecular target: T1, APH(3’)-IIb WT; test: biochemical
APH(3’)-IIb WT [3] = molecular target: T2, APH(3’)-IIb WT (Pseudomonas aeruginosa, UniProt Q9HWR2, M95L); test: PK/LDH coupled assay; assay type: biochemical; settings: 100 µM MgATP, Tris buffer pH 7.5, 25 °C
T2 sequence (Q9HWR2 1-268 M95L): T1 sequence (Q9HWR2 1-268)

| Compound | Kd (APH(3’)-IIb WT [1]) | Kd (APH(3’)-IIb WT [2]) | Km (APH(3’)-IIb WT [3]) |
| --- | --- | --- | --- |
| Nc1ncnc2c1ncn2[C@@H]1O[C@H](COP(=O)(O)OP(=O)(O)O)[C@@H](O)[C@H]1O [ADP] | 4100 ± 500 nM | – | – |
| Nc1ncnc2c1ncn2[C@@H]1O[C@H](COP(=O)(O)OP(=O)(O)OP(=O)(O)O)[C@@H](O)[C@H]1O [ATP] | 10000 ± 700 nM | – | – |
| CN[C@@H]1[C@@H](O)[C@@H](O[C@@H]2[C@@H](O)[C@H](O[C@H]3O[C@H]([C@@H](C)O)[C@@H](O)[C@H](O)[C@H]3N)[C@@H](N)C[C@H]2N)OC[C@]1(C)O [Geneticin] | – | 1590 ± 310 nM | – |
| NCC[C@H](O)C(=O)N[C@@H]1C[C@H](N)[C@@H](O[C@H]2O[C@H](CN)[C@@H](O)[C@H](O)[C@H]2O)[C@H](O)[C@H]1O[C@H]1O[C@H](CO)[C@@H](O)[C@H](N)[C@H]1O [amikacin] | 177000 ± 22000 nM | – | 54.5 ± 21.5 µM |
| CNC(C)[C@@H]1CC[C@@H](N)[C@@H](O[C@H]2[C@H](O)[C@@H](O[C@H]3OC[C@](C)(O)[C@H](NC)[C@H]3O)[C@H](N)C[C@@H]2N)O1 (stereo partly shown) [gentamicin] | – | 59 ± 5 nM | – |
| NC[C@H]1O[C@H](O[C@H]2[C@H](O)[C@@H](O[C@H]3O[C@H](CO)[C@@H](O)[C@H](N)[C@H]3O)[C@H](N)C[C@@H]2N)[C@H](O)[C@@H](O)[C@@H]1O [kanamycin A] | – | – | 0.17 ± 0.06 µM |
| NC[C@H]1O[C@H](O[C@H]2[C@H](O)[C@@H](O[C@H]3O[C@H](CO)[C@@H](O)[C@H](N)[C@H]3O)[C@H](N)C[C@@H]2N)[C@H](N)[C@@H](O)[C@@H]1O [kanamycin B] | 2 ± 1 nM | – | 0.05 ± 0.03 µM |
| NC[C@@H]1O[C@H](O[C@H]2[C@@H](O)[C@H](O[C@@H]3[C@@H](O)[C@H](N)C[C@H](N)[C@H]3O[C@H]3O[C@H](CN)[C@@H](O)[C@H](O)[C@H]3N)O[C@@H]2CO)[C@H](N)[C@@H](O)[C@@H]1O [neomycin] | 12 ± 2 nM | – | 0.07 ± 0.06 µM |
| NC[C@@H]1O[C@H](O[C@H]2[C@@H](O)[C@H](O[C@@H]3[C@@H](O)[C@H](N)C[C@H](N)[C@H]3O[C@H]3O[C@H](CO)[C@@H](O)[C@H](O)[C@H]3N)O[C@@H]2CO)[C@H](N)[C@@H](O)[C@@H]1O [paromomycin] | 173 ± 8 nM | – | 0.53 ± 0.21 µM |
| NC[C@H]1O[C@H](O[C@H]2[C@H](O[C@@H]3O[C@H](CO)[C@@H](O)[C@H]3O)[C@@H](O)[C@H](N)C[C@@H]2N)[C@H](N)[C@@H](O)[C@@H]1O [ribostamycin] | 10 ± 1 nM | – | 0.21 ± 0.17 µM |
| NC[C@H]1O[C@H](O[C@H]2[C@H](O)[C@@H](O[C@H]3O[C@H](CO)[C@@H](O)[C@H](N)[C@H]3O)[C@H](N)C[C@@H]2N)[C@H](N)C[C@@H]1O [tobramycin] | 23 nM | – | – |
